From patent US9914730B2, “Azaquinazoline inhibitors of Atypical protein Kinase C” (Ignyta, Inc., priority 2012, dated 2018)

Target: T1, full-length human PKCι (Homo sapiens, UniProt P41743)
T1 construct: Recombinant, full-length human PKCι expressed in Sf21 insect cells is also commercially available; purchased; host or cells: Sf21 insect cells
T1 sequence (P41743 1-596): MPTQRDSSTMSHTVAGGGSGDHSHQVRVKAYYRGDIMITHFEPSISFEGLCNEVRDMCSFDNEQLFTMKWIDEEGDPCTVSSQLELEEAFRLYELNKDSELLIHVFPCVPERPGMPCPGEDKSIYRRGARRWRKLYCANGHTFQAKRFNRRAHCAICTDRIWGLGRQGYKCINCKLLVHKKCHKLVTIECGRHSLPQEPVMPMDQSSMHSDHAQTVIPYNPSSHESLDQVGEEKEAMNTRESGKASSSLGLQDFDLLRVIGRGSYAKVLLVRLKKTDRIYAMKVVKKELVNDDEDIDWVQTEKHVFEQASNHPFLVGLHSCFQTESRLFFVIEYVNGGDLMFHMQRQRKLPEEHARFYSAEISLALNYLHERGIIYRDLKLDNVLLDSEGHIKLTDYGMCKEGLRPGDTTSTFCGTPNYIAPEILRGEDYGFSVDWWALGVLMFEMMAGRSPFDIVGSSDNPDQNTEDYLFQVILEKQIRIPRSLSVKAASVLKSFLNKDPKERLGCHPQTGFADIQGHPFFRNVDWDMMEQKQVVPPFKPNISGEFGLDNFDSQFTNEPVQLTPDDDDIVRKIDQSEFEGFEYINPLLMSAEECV
Assay: PKCι IC50 IMAP assay, full-length PKCι at 150 μM ATP
Assay type: biochemical
Conditions: read-out: IC50 in IMAP assay against full length PKCi at 150 μM ATP
Outline: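 Full-length human PKCι from Sf21 cells, typically 15 pM, with 100 nM 5FAM-PKCε pseudosubstrate peptide and 150 μM ATP (5× apparent KM), 60 min at room temperature, 4% DMSO. IMAP fluorescence polarisation read-out; inhibition normalised to no-compound and no-enzyme controls, IC50 from curve fit.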

Row | SMILES | IC50
1 | O[C@H]1CCN(c2nc(-c3ccncc3)nc3cnccc23)C1 [Example 35, (3S)-1-[2-(pyridin-4-yl)pyrido[3,4-d]-pyrimidin-4-yl]-pyrrolidin-3-ol] | 10000 to 40000 nM
2 | C#CC1CN(c2nc(-c3ccncc3)nc3cnccc23)CCN1 (centres unmarked) [Example 71, 3-ethynyl-1-[2-(pyridin-4-yl)-pyrido[3,4-d]-pyrimidin-4-yl]-piperazine] | 1000 to 10000 nM
3 | COc1cncc2nc(-c3ccnc(Nc4nc(C)co4)c3)nc(N3CCNCC3)c12 [Example 221, [4-(5-Methoxy-4-piperazin-1-yl-pyrido[3,4-d]pyrimidin-2-yl)-pyridin-2-yl]-(4-methyl-oxazol-2-yl)-amine] | < 100 nM
4 | CN1CCN(c2cccc(Nc3cc(-c4nc(N5CC[C@H](CO)C5)c5c(C6CC6)cncc5n4)ccn3)c2)CC1 [Example 722, [(S)-1-(5-Cyclopropyl-2-{2-[3-(4-methyl-piperazin-1-yl)-phenylamino]-pyridin-4-yl}-pyrido[3,4-d]pyrimidin-4-yl)-pyrrolidin-3-yl]-methanol] | < 100 nM
5 | N[C@H](CNc1nc(-c2ccncc2)nc2c(-c3ccc(Cl)cc3)nccc12)Cc1ccccc1 [Example 103, N-[(2S)-2-amino-3-phenylpropyl]-8-(4-chloro-phenyl)-2-(pyridin-4-yl)-pyrido[3,4-d]-pyrimidin-4-amine] | 100 to 1000 nM
6 | O=C(Nc1cc(-c2nc(N3CCNCC3)c3c(C4CC4)cncc3n2)ccn1)C(F)(F)c1ccccc1 [Example 2126, N-[4-(5-Cyclopropyl-4-piperazin-1-yl-pyrido[3,4-d]pyrimidin-2-yl)-pyridin-2-yl]-2,2-difluoro-2-phenyl-acetamide] | < 100 nM
7 | COc1cncc2nc(-c3ccncc3)nc(N3CCNC(C(F)(F)F)C3)c12 (centres unmarked) [Example 43, 1-[5-methoxy-2-(pyridin-4-yl)pyrido[3,4-d]-pyrimidin-4-yl]-3-(trifluoromethyl)-piperazine] | 1000 to 10000 nM
8 | Fc1cccc(F)c1-n1cc(Nc2cc(-c3nc(N4CCNCC4)c4c(C5CC5)cncc4n3)ccn2)cn1 [Example 818, [4-(5-Cyclopropyl-4-piperazin-1-yl-pyrido[3,4-d]pyrimidin-2-yl)-pyridin-2-yl]-[1-(2,6-difluoro-phenyl)-1H-pyrazol-4-yl]-amine] | < 100 nM
9 | COc1cncc2nc(-c3ccncc3)nc(N3CCOCC3)c12 [Example 70, 4-[5-methoxy-2-(pyridin-4-yl)-pyrido[3,4-d]-pyrimidin-4-yl]-morpholine] | 1000 to 10000 nM
10 | CN(C)CCNC(=O)C1CCN(c2nc(-c3ccnc(Nc4c(F)cccc4F)c3)nc3cncc(C4CC4)c23)CC1 [Example 736, 1-{5-Cyclopropyl-2-[2-(2,6-difluoro-phenylamino)-pyridin-4-yl]-pyrido[3,4-d]pyrimidin-4-yl}-piperidine-4-carboxylic acid (2-dimethylamino-ethyl)-amide] | < 100 nM
11 | Cc1c2ccc(Nc3cc(-c4nc(N5CCNCC5)c5c(C6CC6)cncc5n4)ccn3)cc2nn1C [Example 493, [4-(5-Cyclopropyl-4-piperazin-1-yl-pyrido[3,4-d]pyrimidin-2-yl)-pyridin-2-yl]-(2,3-dimethyl-2H-indazol-6-yl)-amine] | < 100 nM
12 | FC(F)(F)c1cc2c(-c3nc(SC4CCNCC4)c4c(C5CC5)cncc4n3)ccnc2[nH]1 [Example 2134, 5-Cyclopropyl-4-(piperidin-4-ylsulfanyl)-2-(2-trifluoromethyl-1H-pyrrolo[2,3-b]pyridin-4-yl)-pyrido[3,4-d]pyrimidine] | < 100 nM
13 | O=C(Cc1ccccc1)Nc1cc(-c2nc(N3CCNCC3)c3c(C4CC4)cncc3n2)ccn1 [Example 612, N-[4-(5-Cyclopropyl-4-piperazin-1-yl-pyrido[3,4-d]pyrimidin-2-yl)-pyridin-2-yl]-2-phenyl-acetamide] | < 100 nM
14 | FC(F)(F)C1(c2cc3c(-c4nc(N5CCNCC5)c5c(C6CC6)cncc5n4)ccnc3[nH]2)CCC1 [Example 2207, 5-Cyclopropyl-4-piperazin-1-yl-2-[2-(1-trifluoromethyl-cyclobutyl)-1H-pyrrolo[2,3-b]pyridin-4-yl]-pyrido[3,4-d]pyrimidine] | < 100 nM
15 | Cn1cnc2ccc(Nc3cc(-c4nc(N5CCNCC5)c5c(C6CC6)cncc5n4)ccn3)cc21 [Example 2149, [4-(5-Cyclopropyl-4-piperazin-1-yl-pyrido[3,4-d]pyrimidin-2-yl)-pyridin-2-yl]-(3-methyl-3H-benzoimidazol-5-yl)-amine] | < 100 nM
16 | CC1(C)CNCCC1Nc1nc(-c2ccnc(Nc3nc(F)c(F)cc3F)c2)nc2cncc(C3CC3)c12 (centres unmarked) [Example 2176, {5-Cyclopropyl-2-[2-(3,5,6-trifluoro-pyridin-2-ylamino)-pyridin-4-yl]-pyrido[3,4-d]pyrimidin-4-yl}-(3,3-dimethyl-piperidin-4-yl)-amine] | < 100 nM
17 | COc1cncc2nc(-c3ccnc(Nc4ccccc4)c3)nc(N3CCC(O)C(O)C3)c12 (single isomer, unassigned) [Example 463, (3R,4S)-1-[5-Methoxy-2-(2-phenylamino-pyridin-4-yl)-pyrido[3,4-d]pyrimidin-4-yl]-piperidine-3,4-diol or (3S,4R)-1-[5-Methoxy-2-(2-phenylamino-pyridin-4-yl)-pyrido[3,4-d]pyrimidin-4-yl]-piperidine-3,4-diol] | 1000 to 10000 nM
18 | COc1cncc2nc(-c3ccnc(Nc4nc(C(F)(F)F)co4)c3)nc(N3CCNCC3)c12 [Example 202, [4-(5-Methoxy-4-piperazin-1-yl-pyrido[3,4-d]pyrimidin-2-yl)-pyridin-2-yl]-(4-trifluoromethyl-oxazol-2-yl)-amine] | < 100 nM
19 | Clc1cncc2nc(-c3ccnc(Nc4ccccc4)c3)nc(N3CCNCC3)c12 [Example 246, [4-(5-Chloro-4-piperazin-1-yl-pyrido[3,4-d]pyrimidin-2-yl)-pyridin-2-yl]-phenyl-amine] | 100 to 1000 nM
20 | FC[C@H]1CN(c2nc(-c3ccnc(Nc4cc(C(F)(F)F)ccn4)c3)nc3cncc(C4CC4)c23)CCN1 [Example 511, {4-[5-Cyclopropyl-4-((R)-3-fluoromethyl-piperazin-1-yl)-pyrido[3,4-d]pyrimidin-2-yl]-pyridin-2-yl}-(4-trifluoromethyl-pyridin-2-yl)-amine] | 100 to 1000 nM
21 | COc1ccc(-c2nccc3c(NC[C@@H](N)Cc4ccccc4)nc(-c4ccncc4)nc23)cc1 [Example 95, N-[(2S)-2-amino-3-phenylpropyl]-8-(4-methoxy-phenyl)-2-(pyridin-4-yl)-pyrido[3,4-d]-pyrimidin-4-amine] | 100 to 1000 nM
22 | Fc1ccc(Cl)c(F)c1Nc1cc(-c2nc(N3CCNCC3)c3c(C4CC4)cncc3n2)ccn1 [Example 618, (3-Chloro-2,6-difluoro-phenyl)-[4-(5-cyclopropyl-4-piperazin-1-yl-pyrido[3,4-d]pyrimidin-2-yl)-pyridin-2-yl]-amine] | < 100 nM
23 | Fc1cnc(Nc2cc(-c3nc(NC4CCNCC4(F)F)c4c(C5CC5)cncc4n3)ccn2)c(F)c1 (centres unmarked) [Example 2156, {5-Cyclopropyl-2-[2-(3,5-difluoro-pyridin-2-ylamino)-pyridin-4-yl]-pyrido[3,4-d]pyrimidin-4-yl}-(3,3-difluoro-piperidin-4-yl)-amine] | 100 to 1000 nM
24 | FC(F)(F)c1cc2c(-c3nc(N4CCC4)c4c(C5CC5)cncc4n3)ccnc2[nH]1 [Example 1248, 4-Azetidin-1-yl-5-cyclopropyl-2-(2-trifluoromethyl-1H-pyrrolo[2,3-b]pyridin-4-yl)-pyrido[3,4-d]pyrimidine] | 10000 to 40000 nM
25 | CN1CCC(N(C)c2nc(-c3ccnc4[nH]c(C(F)(F)F)cc34)nc3cncc(C4CC4)c23)CC1 [Example 2081, [5-Cyclopropyl-2-(2-trifluoromethyl-1H-pyrrolo[2,3-b]pyridin-4-yl)-pyrido[3,4-d]pyrimidin-4-yl]-methyl-(1-methyl-piperidin-4-yl)-amine] | < 100 nM
26 | Fc1cccc(F)c1Nc1cc(-c2nc(N3CCNCC3)c3c(C4CC4)cnc(F)c3n2)ccn1 [Example 2101, [4-(5-Cyclopropyl-8-fluoro-4-piperazin-1-yl-pyrido[3,4-d]pyrimidin-2-yl)-pyridin-2-yl]-(2,6-difluoro-phenyl)-amine] | < 100 nM
27 | Cn1cc(CNc2cc(-c3nc(N4CCNCC4)c4c(C5CC5)cncc4n3)ccn2)cn1 [Example 758, [4-(5-Cyclopropyl-4-piperazin-1-yl-pyrido[3,4-d]pyrimidin-2-yl)-pyridin-2-yl]-(1-methyl-1H-pyrazol-4-ylmethyl)-amine] | < 100 nM
28 | COc1cncc2nc(-c3ccnc(Nc4ccccc4)c3)nc(N3CCNC(=O)C3)c12 [Example 438, 4-[5-Methoxy-2-(2-phenylamino-pyridin-4-yl)-pyrido[3,4-d]pyrimidin-4-yl]-piperazin-2-one] | 1000 to 10000 nM
29 | FC(F)(F)c1cc2c(-c3nc(N4CCNCC4)c4c(C5CCC5)cncc4n3)ccnc2[nH]1 [Example 2024, 5-Cyclobutyl-4-piperazin-1-yl-2-(2-trifluoromethyl-1H-pyrrolo[2,3-b]pyridin-4-yl)-pyrido[3,4-d]pyrimidine] | < 100 nM
